Test results published in patent US8841508B2, “Non-human mammalian animal model for type 2 diabetes” (National University Corporation, priority 2009, dated 2014).

How the values were obtained:
[1] = tested on: KO mice (Cdkal1 knock-out mice, type 2 diabetes model); assay: Screening simulation: fasting and glucose-tolerance blood glucose level after Exendin-4 in KO mice; type: in vivo, mouse; settings: intraperitoneal, 0.1 mg per kg twice a day, after 1 week and 2 weeks, ANOVA p=0.02
Experimental: (§1) To the KO mice used for the verification of periodical changes of blood glucose level, Exendin-4 which is an agonist of a glucagon-like peptide-1 receptor known as a therapeutic agent for type 2 diabetes was intraperitoneally administrated as a test substance. A degree of type 2 diabetes was then evaluated using the KO mice to simulate the screening of the preventive or therapeutic agent for type 2 diabetes caused by the Cdkal1 abnormality.
(§2) The procedures for evaluating the degree of type 2 diabetes consists of measuring the fasting blood glucose level and glucose-tolerance blood glucose level for KO mice and WT mice, comparing the blood glucose levels for both of the mice, and evaluating them. In this test, Exendin-4 was administered twice a day for 2 weeks at a rate of 0.1 mg per kg, of body weight.

WT mice (wild type mice) = assay: Screening simulation: fasting and glucose-tolerance blood glucose level after Exendin-4 in WT mice; type: in vivo, mouse; settings: intraperitoneal, 0.1 mg per kg twice a day, after 1 week and 2 weeks, ANOVA p=0.02
Experimental: as §1, §2

Exendin-4 was tested, and the “glucose tolerance (blood glucose level after glucose tolerance)” value [1] was “significantly improved glucose tolerance” and the “glucose tolerance (blood glucose level after glucose tolerance)” value (WT mice (wild type mice)) was “significantly improved glucose tolerance”.
